Measurements published in ChEMBL document CHEMBL4219093, “New 4-aryl-1,3,2-oxathiazolylium-5-olates: Chemical synthesis and photochemical stability of a novel series of S-nitrosothiols” (Bioorg Med Chem Lett, 2018).

Assays:
Assay type in all cases: physicochemical
[1] = Photochemical stability of the compound in EtOH/H2O assessed as ring opening by measuring compound decomposition at 75 mM measured in presence of ambient daylight conditions after 40 mins by UV-vis spectrophotometric method; conditions: for degraded at 40 min: EtOH/H2O, read-out: Drug degradation
[2] = Drug metabolism assessed as ring opening in EtOH/H2O at 75 mM measured after 40 mins under dark condition by UV-vis spectrophotometric method; conditions: for Drug metabolism: 40 min, 75000 µM; for degraded at 40 min: EtOH/H2O, read-out: Drug metabolism
[3] = Photochemical stability of the compound assessed as compound decomposition in phosphate buffer at pH 7.4 exposed to daylight at 0.4 mM measured over 3 hrs by UV-Vis absorbance method; conditions: read-out: Drug degradation

| SMILES | Drug metabolism [2] | degraded at 40 min [2] [%] | other results |
| --- | --- | --- | --- |
| [O-]c1on[s+]c1-c1ccc(F)cc1F | Metabolite_Detected | – | Stability ([1]; 40 min, 75000 µM): Stable |
| [O-]c1on[s+]c1-c1cccc(Cl)c1 | – | 40 to 80 | – |
| [O-]c1on[s+]c1-c1ccc(Cl)cc1 | Metabolite_Detected | – | degraded at 40 min [1]: 42% |

Second part, led by results:

| Drug metabolism [2] | degraded at 40 min [2] [%] | SMILES | other results |
| --- | --- | --- | --- |
| – | 40 to 80 | [O-]c1on[s+]c1-c1ccc(F)cc1 | degraded at 40 min [1]: 76% |
| – | 40 to 80 | [O-]c1on[s+]c1-c1cc(F)cc(F)c1 | – |
| Metabolite_Detected | – | [O-]c1on[s+]c1-c1ccccc1Cl | – |
| – | 48 | [O-]c1on[s+]c1-c1ccccc1 | degraded at 3 h, 400 µM [3]: 7% |
